Reference: ChEMBL document CHEMBL1201862, “PubChem BioAssay data set” (2004)
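1) Cells in 96-well plates. 2) Compound, 48 h, 5 concentrations. 3) Linear interpolation between surrounding doses. 4) Unreached endpoint = highest concentration. GI50 marks 50% less growth.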 Activity calls are given as the source filed them. No stated cut-off is given here; in the data, active = GI50 up to about 1.1 µM and inactive = higher.

Key:
Assay in all cases: DTP human tumour cell line panel, 48 h
DLD-1 = test system: DLD-1
HT-29 = test system: HT-29
HCT-15 = test system: HCT-15
K562 = test system: K562
HCC 2998 = test system: HCC 2998
KM12 = test system: KM12
SK-OV-3 = test system: SK-OV-3
KM-20L2 = test system: KM-20L2
M19-MEL = test system: M19-MEL
XF498 = test system: XF498
SK-MEL-5 = test system: SK-MEL-5
SW-620 = test system: SW-620
DMS-273 = test system: DMS-273
HOP-92 = test system: HOP-92
SNB-78 = test system: SNB-78
DMS-114 = test system: DMS-114
SR = test system: SR

| Structure (SMILES) | GI50 (DLD-1) | GI50 (HT-29) | GI50 (HCT-15) | GI50 (K562) | GI50 (HCC 2998) | GI50 (KM12) | GI50 (SK-OV-3) | GI50 (KM-20L2) | GI50 (M19-MEL) | GI50 (XF498) | GI50 (SK-MEL-5) | GI50 (SW-620) | GI50 (DMS-273) | GI50 (HOP-92) | GI50 (SNB-78) | GI50 (DMS-114) | GI50 (SR) |
| --- | --- | --- | --- | --- | --- | --- | --- | --- | --- | --- | --- | --- | --- | --- | --- | --- | --- |
| CC1(C)O[C@@H](C[C@]2(C#N)C[C@H](CCl)OC(C)(C)O2)C[C@@H](C#N)O1 | > 100 µM (inactive) | > 100 µM (inactive) | > 100 µM | > 100 µM (inactive) | > 100 µM (inactive) | > 100 µM (inactive) | > 100 µM (inactive) | > 100 µM (inactive) | > 100 µM (inactive) | 55.8 µM (inactive) | > 100 µM (inactive) | > 100 µM (inactive) | > 100 µM (inactive) | 78.9 µM (inactive) | > 100 µM (inactive) | > 100 µM (inactive) | > 100 µM (inactive) |
| C=C1C[C@@H]2C[C@@H](C)CC(O)[C@]2(CCCN)C1O (stereo partly drawn) | > 100 µM (inactive) | > 100 µM (inactive) | – | > 100 µM (inactive) | > 100 µM (inactive) | > 100 µM (inactive) | > 100 µM (inactive) | > 100 µM (inactive) | > 100 µM (inactive) | > 100 µM (inactive) | > 100 µM (inactive) | > 100 µM (inactive) | > 100 µM (inactive) | > 100 µM (inactive) | > 100 µM (inactive) | > 100 µM (inactive) | > 100 µM (inactive) |
